# Results: patent publication US4352803A, “Novel naphthyridine derivatives, intermediates thereof, processes for preparation thereof, and use thereof” (Dainippon Pharmaceutical Co., Ltd., priority 1978, dated 1982)
# Where a name gives a salt, the structure may show the parent alone. Read-outs that look alike come from different tables or passages of the source.
# Columns and labels:
# in vivo = settings: mouse, in vivo, po
# Description: The number of dead mice was counted after 7 days, and the value of median lethal dose (LD50, mg/kg) was calculated in accordance with the Behrens-Kaerber method.
# [1] = test system: Salmonella enteritidis No. 1891; assay: In vitro antibacterial activity (MIC), Salmonella enteritidis No. 1891; type: cell-based; settings: Salmonella enterica, read-out: minimum inhibitory concentration (MIC)
# Source text: (§1) (MIC) (μg/ml) Method; Chemotherapy, 22(6), 1126 (1974)
# [2] = test system: Staphylococcus aureus No. 50774; assay: In vitro antibacterial activity (MIC), Staphylococcus aureus No. 50774; type: cell-based
# Source text: as §1
# [3] = test system: Shigella flexneri 4a P-330; assay: In vitro antibacterial activity (MIC), Shigella flexneri 4a P-330; type: cell-based; settings: 4AP330, read-out: minimum inhibitory concentration (MIC)
# Source text: as §1
# [4] = test system: Staphylococcus aureus No. 50774; assay: in vivo efficacy against systemic infection in mice, Staphylococcus aureus No. 50774; settings: NO.50774, in Mus musculus, po, 336 h
# Description: Male mice (ddY) weighing about 20 g
# Intravenous infection with (about
# 5 × 10^8 cells/mouse) of a bacterial
# (§2) Twice, about 5 minutes and 6 hours after infection.
# Shigella flexneri 2a = assay: In vitro antibacterial activity (MIC), Shigella flexneri 2a; type: cell-based; settings: read-out: minimum inhibitory concentration (MIC)
# Source text: as §1
# [5] = test system: Corynebacterium pyogenes C-21; assay: In vitro antibacterial activity (MIC), Corynebacterium pyogenes C-21; type: cell-based; settings: Rhodococcus (subgen. Prescottella) equi
# Source text: as §1
# [6] = test system: Klebsiella pneumoniae No. 13; assay: In vitro antibacterial activity (MIC), Klebsiella pneumoniae No. 13; type: cell-based
# Source text: as §1
# [7] = test system: Serratia marcescens IFC 3736; assay: In vitro antibacterial activity (MIC), Serratia marcescens IFC 3736; type: cell-based
# Source text: as §1
# [8] = test system: Pseudomonas aeruginosa No. 12; assay: in vivo efficacy against systemic infection in mice, Pseudomonas aeruginosa No. 12; settings: NO.12, in Mus musculus, po, 168 h
# Description: Male mice (ddY) weighing about 20 g
# (3) Pseudomonas aeruginosa No. 12;
# (about 5 × 10^3 cells/mouse) of a bacterial
# (§3) suspension in trypto-soy broth with 4% mucin.
# as §2
# The numerals in the table show ED50 (mg/kg). ED50 values were
# [9] = test system: Streptococcus faecalis P-2473; assay: In vitro antibacterial activity (MIC), Streptococcus faecalis P-2473; type: cell-based; settings: Enterococcus faecalis
# Source text: as §1
# Escherichia coli P-5101 [10] = assay: In vitro antibacterial activity (MIC), Escherichia coli P-5101; type: cell-based
# Source text: as §1
# [11] = test system: Staphylococcus aureus 209P JC-1; assay: In vitro antibacterial activity (MIC), Staphylococcus aureus 209P JC-1; type: cell-based; settings: read-out: minimum inhibitory concentration (MIC)
# Source text: as §1
# [12] = test system: Streptococcus pyogenes 65A; assay: In vitro antibacterial activity (MIC), Streptococcus pyogenes 65A; type: cell-based; settings: read-out: minimum inhibitory concentration (MIC)
# Source text: as §1
# [13] = test system: Pseudomonas aeruginosa No. 12; assay: In vitro antibacterial activity (MIC), Pseudomonas aeruginosa No. 12; type: cell-based
# Source text: as §1
# [14] = test system: Salmonella typhimurium 8-9; assay: In vitro antibacterial activity (MIC), Salmonella typhimurium 8-9; type: cell-based; settings: Salmonella enterica, read-out: minimum inhibitory concentration (MIC)
# Source text: as §1
# Proteus morganii Kono = assay: In vitro antibacterial activity (MIC), Proteus morganii Kono; type: cell-based; settings: Morganella morganii, read-out: minimum inhibitory concentration (MIC)
# Source text: as §1
# [15] = test system: Enterobacter cloacae P-2540; assay: In vitro antibacterial activity (MIC), Enterobacter cloacae P-2540; type: cell-based
# Source text: as §1
# Escherichia coli P-140a = assay: In vitro antibacterial activity (MIC), Escherichia coli P-140a; type: cell-based; settings: read-out: minimum inhibitory concentration (MIC)
# Source text: as §1
# [16] = test system: Pseudomonas aeruginosa Tsuchijima; assay: In vitro antibacterial activity (MIC), Pseudomonas aeruginosa Tsuchijima; type: cell-based; settings: read-out: minimum inhibitory concentration (MIC)
# Source text: as §1
# Escherichia coli P-5101 [17] = assay: in vivo efficacy against systemic infection in mice, Escherichia coli P-5101; settings: P5101, in Mus musculus, po, 168 h
# Description: Male mice (ddY) weighing about 20 g
# Intraperitoneal infection with (about
# 9 × 10^6 cells/mouse) of a bacterial
# as §3, §2
# [18] = test system: Escherichia coli NIHJ JC-2; assay: In vitro antibacterial activity (MIC), Escherichia coli NIHJ JC-2; type: cell-based
# Source text: as §1
# Proteus mirabilis P-2381 = assay: In vitro antibacterial activity (MIC), Proteus mirabilis P-2381; type: cell-based
# Source text: as §1
# [19] = test system: Gram-positive and Gram-negative bacteria; assay: in vivo therapeutic efficacy against systemic infections in mice (overall); parameters: species or system mice (ddY); settings: for therapeutic effects in vivo against Gram-negative bacteria, relative to compounds 1, 1' and 2: particularly Pseudomonas aeruginosa
# [20] = Salmonella enteritidis No. 1891
# [21] = Staphylococcus aureus No. 50774, read-out: minimum inhibitory concentration (MIC)
# [22] = C21, Corynebacterium pyogenes C-21, read-out: minimum inhibitory concentration (MIC)
# [23] = Klebsiella pneumoniae No. 13, read-out: minimum inhibitory concentration (MIC)
# [24] = IFC3736, Serratia marcescens IFC 3736, read-out: minimum inhibitory concentration (MIC)
# [25] = P2473, Streptococcus faecalis P-2473, read-out: minimum inhibitory concentration (MIC)
# [26] = Staphylococcus aureus 209P JC-1
# [27] = Pseudomonas aeruginosa No. 12, read-out: minimum inhibitory concentration (MIC)
# [28] = P2540, Enterobacter cloacae P-2540, read-out: minimum inhibitory concentration (MIC)
# [29] = Pseudomonas aeruginosa Tsuchijima
# [30] = NIHJJC2, Escherichia coli NIHJ JC-2, read-out: minimum inhibitory concentration (MIC)
# [31] = P2381, Proteus mirabilis P-2381, read-out: minimum inhibitory concentration (MIC)
# [32] = Escherichia coli, P5101, read-out: minimum inhibitory concentration (MIC)
# [33] = Escherichia coli, NIHJJC2, read-out: minimum inhibitory concentration (MIC)
# [34] = Pseudomonas aeruginosa, NO.12, read-out: minimum inhibitory concentration (MIC)
# [35] = Proteus mirabilis, P2381, read-out: minimum inhibitory concentration (MIC)
# [36] = Staphylococcus aureus, NO.50774, read-out: minimum inhibitory concentration (MIC)
# [37] = C21, read-out: minimum inhibitory concentration (MIC)
# [38] = Klebsiella pneumoniae, NO.13, read-out: minimum inhibitory concentration (MIC)
# [39] = Serratia marcescens, IFC3736, read-out: minimum inhibitory concentration (MIC)
# [40] = P2473, read-out: minimum inhibitory concentration (MIC)
# [41] = Enterobacter cloacae, P2540, read-out: minimum inhibitory concentration (MIC)
SMILES,"MIC [1, 20] [µg/mL]","MIC [2, 21] [µg/mL]",MIC [3] [µg/mL],ED50 [4] [mg/kg],MIC (Shigella flexneri 2a) [µg/mL],"MIC [5, 22] [µg/mL]","MIC [6, 23] [µg/mL]",ED50 [8] [mg/kg],"MIC [9, 25] [µg/mL]","MIC [11, 26] [µg/mL]",MIC ([12]; Streptococcus pyogenes 65A) [µg/mL],"MIC [13, 27] [µg/mL]",MIC ([14]; Salmonella typhimurium 8-9) [µg/mL],"MIC [15, 28] [µg/mL]",ED50 (Escherichia coli P-5101 [17]) [mg/kg],MIC (Escherichia coli P-5101 [10]; [32]) [µg/mL],MIC ([16]; Pseudomonas aeruginosa) [µg/mL],"MIC [18, 33] [µg/mL]","MIC [7, 39] [µg/mL]",MIC (Proteus morganii Kono) [µg/mL],other results
"C=Cn1cc(C(=O)O)c(=O)c2cc(Cl)c(N3CCNCC3)nc21 [Compound 4, 6-Chloro-1,4-dihydro-4-oxo-7-(1-piperazinyl)-1-vinyl-1,8-naphthyridine-3-carboxylic acid]",0.2,6.25,0.2,~100,0.2,6.25,0.39,18.5,12.5,3.13,6.25,1.56,0.2,0.2,4.8,–,–,–,–,–,"LD50 at 168 h (in vivo): > 2000 mg/kg; MIC [7, 24]: 0.78 µg/mL; MIC (Escherichia coli P-5101 [10]; P5101, Escherichia coli P-5101, read-out: minimum inhibitory concentration (MIC)): 0.1 µg/mL; MIC (Proteus morganii Kono; Proteus morganii Kono): 0.2 µg/mL; MIC (Escherichia coli P-140a; P140A, Escherichia coli P-140a): 0.1 µg/mL; MIC [16, 29]: 1.56 µg/mL; MIC [18, 30]: 0.2 µg/mL; MIC (Proteus mirabilis P-2381; [31]): 0.78 µg/mL"
"CC1(C)S[C@@H]2[C@H](NC(=O)C(C(=O)Oc3ccc4c(c3)CCC4)c3ccccc3)C(=O)N2[C@H]1C(=O)O (stereo partly drawn) [G, α-(5-Indanyloxycarbonyl)benzylpenicillin sodium salt]",0.78,0.78,6.25,10 to 40,12.5,3.13,> 200,202,50,0.39,0.2,50,0.78,3.13,100,6.25,6.25,6.25,–,–,"MIC [7, 24]: 3.13 µg/mL; MIC (Proteus morganii Kono; Proteus morganii Kono): 0.78 µg/mL; MIC (Escherichia coli P-140a; P140A, Escherichia coli P-140a): 50 µg/mL; MIC (Proteus mirabilis P-2381; [31]): 0.78 µg/mL"
"CC1(C)S[C@@H]2[C@H](NC(=O)[C@H](N)c3ccccc3)C(=O)N2[C@H]1C(=O)O [H, D-α-Aminobenzylpenicillin]",0.2,0.1,6.25,2.2,3.13,1.56,100,> 400,1.56,0.05,0.025,–,0.39,> 200,43.5,6.25,> 200,6.25,–,–,"LD50 at 168 h (in vivo): > 5000 mg/kg; MIC [7, 24]: 25 µg/mL; therapeutic effects in vivo against Gram-negative bacteria, relative to compounds 1, 1' and 2 [19]: clearly inferior; MIC [13, 34]: > 200 µg/mL; MIC (Proteus morganii Kono; Proteus morganii Kono): 100 µg/mL; MIC (Escherichia coli P-140a; P140A, Escherichia coli P-140a): 200 µg/mL; MIC (Proteus mirabilis P-2381; [35]): 3.13 µg/mL"
"CC1=C(C(=O)O)N2C(=O)[C@@H](NC(=O)[C@H](N)c3ccccc3)[C@H]2SC1 [J, 7-(D-α-Aminophenylacetamido)desacetoxycephalosporanic acid]",–,–,200,12.1,12.5,–,–,> 400,–,–,–,–,–,–,22.6,12.5,> 200,12.5,> 200,> 200,"MIC ([1]; ENTERITIDIS): 3.13 µg/mL; MIC [2, 36]: 1.56 µg/mL; MIC [5, 37]: 1.56 µg/mL; MIC [6, 38]: 6.25 µg/mL; MIC [9, 40]: 200 µg/mL; MIC ([11]; Staphylococcus aureus, 209P): 1.56 µg/mL; MIC ([12]; Streptococcus pyogenes, 65A): 0.78 µg/mL; MIC [13, 34]: > 200 µg/mL; MIC ([14]; TYPHIMURIUM): 6.25 µg/mL; MIC [15, 41]: > 200 µg/mL; MIC (Escherichia coli P-140a; Escherichia coli): > 200 µg/mL; MIC (Proteus mirabilis P-2381; [35]): 12.5 µg/mL"
"CCn1cc(C(=O)O)c(=O)c2cc(Cl)c(N3CCNCC3)nc21.Cl [Compound 3, 6-Chloro-1-ethyl-1,4-dihydro-4-oxo-7-(1-piperazinyl)-1,8-naphthyridine-3-carboxylic acid hydrochloride]",0.39,6.25,1.56,~90,0.78,6.25,–,58.6,25,3.13,12.5,6.25,0.39,0.78,6.5,0.39,–,–,1.56,1.56,"LD50 at 168 h (in vivo): > 2000 mg/kg; MIC [6, 38]: 1.56 µg/mL; MIC (Escherichia coli P-140a; Escherichia coli): 0.39 µg/mL; MIC [16, 29]: 6.25 µg/mL; MIC [18, 30]: 0.78 µg/mL; MIC (Proteus mirabilis P-2381; [31]): 3.13 µg/mL"
"CCOC(=O)c1cn(CC)c2nc(N3CCNCC3)c(F)cc2c1=O [ethyl ester of compound 1, Ethyl 1-ethyl-6-fluoro-1,4-dihydro-4-oxo-7-(1-piperazinyl)-1,8-naphthyridine-3-carboxylate]",–,–,–,~20,–,–,–,21,–,–,–,–,–,–,–,–,–,–,–,–,therapeutic effect / in vivo antibacterial activity (in words) ([19]; systemic infections with Gram-positive and Gram-negative bacteria): superior antibacterial activity in vivo
"CCn1cc(C(=O)O)c(=O)c2cnc(N3CCNCC3)nc21 [F, 8-Ethyl-5,8-dihydro-5-oxo-2-(1-piperazinyl)pyrido[2,3-d] pyrimidine-6-carboxylic acid]",–,–,1.56,215,3.13,25,6.25,99.5,–,12.5,–,25,–,–,21.2,1.56,–,1.56,3.13,3.13,"MIC ([1]; ENTERITIDIS): 1.56 µg/mL; MIC [2, 36]: 25 µg/mL; MIC [9, 40]: 200 µg/mL; MIC ([12]; Streptococcus pyogenes, 65A): 200 µg/mL; MIC ([14]; TYPHIMURIUM): 1.56 µg/mL; MIC [15, 41]: 1.56 µg/mL; MIC (Escherichia coli P-140a; Escherichia coli): 1.56 µg/mL; MIC [16, 29]: 12.5 µg/mL; MIC (Proteus mirabilis P-2381; [35]): 3.13 µg/mL"
"CCn1cc(C(=O)O)c(=O)c2ccc(C)nc21 [E, 1-Ethyl-1,4-dihydro-7-methyl-4-oxo-1,8-naphthyridine-3-carboxylic acid]",–,–,–,> 800,6.25,–,–,> 200,–,–,–,–,–,–,29.2,3.13,200,12.5,6.25,6.25,"MIC ([1]; ENTERITIDIS): 3.13 µg/mL; MIC [2, 36]: 50 µg/mL; MIC [5, 37]: > 200 µg/mL; MIC [6, 38]: 12.5 µg/mL; MIC [9, 40]: > 200 µg/mL; MIC ([11]; Staphylococcus aureus, 209P): 100 µg/mL; MIC ([12]; Streptococcus pyogenes, 65A): > 200 µg/mL; therapeutic effects in vivo against Gram-negative bacteria, relative to compounds 1, 1' and 2 [19]: clearly inferior; MIC [13, 34]: 200 µg/mL; MIC ([14]; TYPHIMURIUM): 3.13 µg/mL; MIC [15, 41]: 6.25 µg/mL"
